Consider one substance from PMC6006164, “Natural cyclopeptide RA-V inhibits the NF-κB signaling pathway by targeting TAK1” (Cell Death & Disease, 2018).

For the assay, the system named is HCT116 xenograft tumors. As to the kind of experiment: HCT116 xenograft in nude mice. Type of assay: in vivo, female athymic nude BALB/c mice. The procedure: Fig. 7 RA-V inhibits tumor growth and the expression of NF-κB target genes in a nude xenograft model. a–d Inhibition of the growth of HCT116 and HepG2 xenograft tumors by RA-V. Female athymic nude BALB/c mice bearing HCT116 (n = 8) or HepG2 (n = 7) xenograft tumors were intravenously injected with various concentrations of RA-V micelles or control micelles every other day. 5-FU (10 mg/kg) group as positive control. Effects of RA-V on the growth curves of subcutaneoue xenografts of HCT116 (a) and HepG2 (b) and effects on the tumor weight in the HCT116 (c) and HepG2 (d) models. e–f Tumors removed were photographed. g–h The expression of the NF-κB target genes, IL-8, MCP-1, and CXCL-1, in HCT116 (g) and HepG2 (h) tumor tissue from vehicle- and various concentrations of RA-V-treated group was determined by quantitative RT-PCR and normalized to GADPH expression. *, p < 0.05; **, p < 0.01; ***, p < 0.001
In total, 2 × 10^6 HCT116 or 3 × 10^6 HepG2 cells were subcutaneously injected into the right dorsal flank of 6- to 8-week-old female athymic nude BALB/c mice. After tumor volumes reached 100 mm^3, the tumor-bearing mice were randomly divided into several groups. The mice bearing HCT116 (n = 8) or HepG2 xenograft tumors (n = 7) were received the intravenous injection of vehicle micelles or various concentrations of RA-V micelles every other day. 5-FU (10 mg/kg) group as positive control. Body weights and tumor volumes were recorded every other day. Tumor volumes were calculated using the following formula: tumor volume (mm^3) = 0.52 × length × width^2. At the end of the experiments, the mice were killed. Tumor xenografts of each mouse were removed and weighed. Part of each tumor tissue was stored at liquid nitrogen for quantitative RT-PCR analysis. […] Serum alanine transaminase(ALT), aspartate transaminase(AST), and creatine kinase(CK) were determined using relevant kits (Nanjing Jiancheng) according to the manufacturer’s specific instructions.

[1] abbreviates: HCT116, n = 8, RA-V micelles i.v. every other day, vs control.

Turning to RA-V, under setting [1], the “tumor growth rate (tumor volume)” value is “significantly reduced” and the tumor weight result is “obviously lower”. Also, under “HCT116 xenograft, quantitative RT-PCR”, the “expression of IL-8, MCP-1, and CXCL-1 in tumor tissue” value is listed as “remarkable decreased”.
